Measurements as given in patent US7820693B2, “1-(2H)-isoquinolone derivative” (Chugai Seiyaku Kabushiki Kaisha, priority 2005, dated 2010).

System: human colon cancer cell line HCT116 transplanted into the inguinal subcutis
Assay: Measurement of antitumor effect in tumor-bearing mouse
Format: in vivo, BALB/c nude mouse
Conditions: HCT116 xenograft, 300 mg/kg orally, twice (day 0 and 7 days after), vs control group
Description: A representative example of the compound group of the present invention was measured in terms of antitumor effect.
Such antitumor effect was examined, using a tumor-bearing mouse produced by transplanting the human colon cancer cell line HCT116 obtained from American Type Culture Collection (Virginia, U.S.A) into the inguinal subcutis of a BALB/c nude mouse purchased from Charles River Laboratories Japan, Inc. The purchased nude mouse was quarantined for 1 week. Thereafter, approximately 5×10^6 HCT116 cells were transplanted subcutaneously. When the size of a tumor thereof became 200 mm^3, the mouse was subjected to the present experiment.
Each compound was suspended in a solution to be administered, and 0.2 ml of the solution was orally administered. Such administration was carried out twice in total, that is, on the initiation date of administration and 7 days after the first administration. The antitumor effect was calculated as a tumor growth inhibition by comparing the agent-treated group with a control group in terms of tumor growth, on 14 days after the initiation date of administration. Tumor growth inhibition (TGI)=(1−the tumor growth amount of agent-treated group/the tumor growth amount of control group)×100(%) The results are shown in Table 7.

Structure (SMILES)	TGI (%) obtained 14 days after administration [%]
O=C1O[C@@H](CO)CN1c1ccc2cc(-c3ccccc3C(F)(F)F)[nH]c(=O)c2c1 [Example 14, 7-((R)-5-hydroxymethyl-2-oxooxazolidin-3-yl)-3-(2-trifluoromethylphenyl)-2H-isoquinolin-1-one]	113

System: human colon cancer cell line HCT116
Assay: Measurement of cell growth inhibitory activity (Cell Counting Kit-8)
Format: cell-based
Conditions: HCT-116, 96 h, HCT116, 2,000 cells/well, cultured 4 days
Description: Cancer cell growth inhibitory activity was measured using Cell Counting Kit-8 manufactured by Dojindo Laboratories. The human colon cancer cell line HCT116 obtained from American Type Culture Collection (Virginia, U.S.A) was inoculated in a 96-well culture plate at a concentration of 2,000 cells/well. Thereafter, a certain concentration of compound was added thereto, and the obtained mixture was then cultured at 37° C. in 5% CO2, 95% air for 4 days. On the 4th day of the culture, a Cell Counting Kit-8 solution was added to the culture product, and absorbance (measurement wavelength: 450 nm; reference wavelength: 615 nm) was measured in accordance with protocols included with the kit. Thereafter, 50% growth inhibitory concentration (IC50) was calculated.

Structure (SMILES)	IC50 [nM]
O=C1C=C(OCc2ccccc2)CN1c1ccc2cc(-c3ccccc3C(F)(F)F)[nH]c(=O)c2c1 [Example 8, 7-(4-benzyloxy-2-oxo-2,5-dihydropyrrol-1-yl)-3-(2-trifluoromethylphenyl)-2H-isoquinolin-1-one]	200
O=C1N(CCO)CCN1c1ccc2cc(-c3ccccc3C(F)(F)F)[nH]c(=O)c2c1 [Example 9, 7-[3-(2-hydroxyethyl)-2-oxoimidazolidin-1-yl]-3-(2-trifluoromethylphenyl)-2H-isoquinolin-1-one]	530
O=C(OC[C@@H]1COC(=O)N1c1ccc2cc(-c3ccccc3C(F)(F)F)[nH]c(=O)c2c1)c1ccccc1 [Example 11, (R)-2-oxo-3-[1-oxo-3-(2-trifluoromethylphenyl)-1,2-dihydroisoquinolin-7-yl]oxazolidin-4-ylmethyl benzoate]	450
O=C1O[C@@H](CO)CN1c1ccc2cc(-c3ccccc3C(F)(F)F)[nH]c(=O)c2c1 [Example 14, 7-((R)-5-hydroxymethyl-2-oxooxazolidin-3-yl)-3-(2-trifluoromethylphenyl)-2H-isoquinolin-1-one]	300
O=C1CCCN1c1ccc2cc(-c3ccccc3C(F)(F)F)[nH]c(=O)c2c1 [Example 15, 7-(2-oxopyrrolidin-1-yl)-3-(2-trifluoromethylphenyl)-2H-isoquinolin-1-one]	110
O=C1O[C@H](CO)CN1c1ccc2cc(-c3ccccc3OC(F)(F)F)[nH]c(=O)c2c1 [Example 27, 7-((S)-5-hydroxymethyl-2-oxooxazolidin-3-yl)-3-(2-trifluoromethoxyphenyl)-2H-isoquinolin-1-one]	21
O=C1OC(CCO)CN1c1ccc2cc(-c3ccccc3C(F)(F)F)[nH]c(=O)c2c1 (stereo not shown) [Example 29, 7-[5-(2-hydroxyethyl)-2-oxooxazolidin-3-yl]-3-(2-trifluoromethylphenyl)-2H-isoquinolin-1-one]	91
CC(=O)NCC1CN(c2ccc3cc(-c4ccccc4C(F)(F)F)[nH]c(=O)c3c2)C(=O)O1 (stereo not shown) [Example 32, N-{2-oxo-3-[1-oxo-3-(2-trifluoromethylphenyl)-1,2-dihydroisoquinolin-7-yl]oxazolidin-5-ylmethyl}acetamide]	530
O=C1OC(CN2CCOCC2)CN1c1ccc2cc(-c3ccccc3C(F)(F)F)[nH]c(=O)c2c1 (stereo not shown) [Example 33, 7-(5-morpholin-4-ylmethyl-2-oxooxazolidin-3-yl)-3-(2-trifluoromethylphenyl)-2H-isoquinolin-1-one]	290
CN1C(=O)N(c2ccc3cc(-c4ccccc4C(F)(F)F)[nH]c(=O)c3c2)C[C@@H]1COCc1ccccc1 [Example 35, 7-((R)-4-benzyloxymethyl-3-methyl-2-oxoimidazolidin-1-yl)-3-(2-trifluoromethylphenyl)-2H-isoquinolin-1-one]	960
CN1C(=O)N(c2ccc3cc(-c4ccccc4C(F)(F)F)[nH]c(=O)c3c2)C[C@@H]1CO [Example 36, 7-((R)-4-hydroxymethyl-3-methyl-2-oxoimidazolidin-1-yl)-3-(2-trifluoromethylphenyl)-2H-isoquinolin-1-one]	310

System: not listed separately
Assay: Measurement of solubility (HPLC of filtrate)
Conditions: 50 mM sodium citrate-HCl buffer (pH 4.0), pH 4, aqueous buffer, thermodynamic from solid
Description: Measurement was carried out by preparing a four-point calibration curve (4,000 μM, 1,000 μM, 250 μM, and 31.3 μM) according to the internal standard method. A sample solution (100% DMSO) was freeze-dried, and each solution was then added thereto. The obtained mixture was stirred for 2 hours. Thereafter, a solution in which the sample had been dissolved was filtrated, and the filtrate was then analyzed with an analyzer. As an analysis method, the filtrate was measured by HPLC (HPLC). As dissolving solutions, a saline solution or a 50 mM sodium citrate-HCl buffer (pH 4.0) solution were used.

Structure (SMILES)	solubility at 2 h [µM]
CC(C)[C@H](N)C(=O)OC[C@H]1CN(c2ccc3cc(-c4ccccc4C(F)(F)F)[nH]c(=O)c3c2)C(=O)O1.Cl [Example B9, (R)-2-oxo-3-[1-oxo-3-(2-trifluoromethylphenyl)-1,2-dihydroisoquinolin-7-yl]oxazolidin-5-ylmethyl(S)-2-amino-3-methyl-butanoate hydrochloride]	> 2000
CNCC(=O)OC[C@@H]1CN(c2ccc3cc(-c4ccccc4C(F)(F)F)[nH]c(=O)c3c2)C(=O)O1.Cl [Example B20, (S)-2-oxo-3-[1-oxo-3-(2-trifluoromethylphenyl)-1,2-dihydroisoquinolin-7-yl]oxazolidin-5-ylmethyl methylaminoacetate hydrochloride]	> 2000

Same assay, conditions: no asterisk: saline solution, stirred 2 hours

Structure (SMILES)	Solubility [mM]
CC(C)(OC(=O)c1ccccc1C(=O)[O-])[C@@H]1CN(c2ccc3cc(-c4ccccc4C(F)(F)F)[nH]c(=O)c3c2)C(=O)O1.[Na+] [Example C6]	>2

Same assay, conditions: saline solution, saline or isotonic, thermodynamic from solid

Structure (SMILES)	solubility at 2 h [µM]
O=C(OCCOCCOCCOCCOCCOCCO)OC[C@@H]1CN(c2ccc3cc(-c4ccccc4C(F)(F)F)[nH]c(=O)c3c2)C(=O)O1 [Example C45, 2-[2-(2-{2-[2-(2-hydroxyethoxy)ethoxy]ethoxy}ethoxy)ethoxy]ethyl carbonate (S)-2-oxo-3-[1-oxo-3-(2-trifluoromethylphenyl)-1,2-dihydroisoquinolin-7-yl]oxazolidin-5-ylmethyl ester]	> 2000
